Results as given in PMC9377006, “Discovery of Desmuramylpeptide NOD2 Agonists with Single-Digit Nanomolar Potency” (ACS Medicinal Chemistry Letters, 2022).
Blank lines part the entries; values can stand above or below the molecule they belong to.

Columns and labels:
[1] = target: T1, human NOD2 (Homo sapiens, UniProt Q9HC29); experiment: HEK-Blue NOD2 NF-κB SEAP reporter assay (NOD2 agonistic activity); type: cell-based
T1 construct: host or cells: HEK-Blue NOD2 cells (derived from HEK293)
Description: The synthesized desmuramylpeptides were evaluated for their dose-dependent NOD2 activity using the commercially available HEK-Blue NOD2 reporter cell line. This cell line is derived from HEK293 cells by cotransfection of human NOD2 and an NF-κB-inducible secreted embryonic alkaline phosphatase (SEAP). Activation of NOD2 and subsequently of NF-κB leads to the expression and secretion of SEAP, the level of which can be quantified colorimetrically. […]
two passages, 200 µg/mL Zeocin (Invivogen) was added to the medium every other passage to maintain selection pressure. The cells were incubated in a humidified atmosphere at 37 °C and 5% CO 2. […]
Aldrich), and 100 µg/mL streptomycin (Sigma -Aldrich).
The tested compounds were dissolved in DMSO and further di luted in culture medium to the desired final concentrations, such that the final DMSO concentration never exceeded 0.1%. […]
4.6 NOD1/NOD2-NF-kB reporter assay
HEK-Blue NOD2 or NOD1 cells were seeded (25,000 cells/well) in 96 -well plates in 100 µL HEK-Blue detection medium (Invivogen, San Diego, CA, USA) and treated with compounds ( 2 µM for fixed […]
the corresponding vehicle (0.1% DMSO). After 18 h of incubation (37 °C, 5% CO2), secreted embryonic alkaline phosphatase (SEAP) activity was determined spectrophotometrically as absorbance at 630 nm (BioTek Synergy microplate reader; Winooski, VT, USA). EC50 values were calculated using Prism software (version 9; GraphPad Software, CA, USA). The experiments were run in duplicates and repeated as at least three independent biological replicates. […]

[2] = tested on: PBMCs; experiment: Cytokine release from peripheral blood mononuclear cells; type: cell-based; settings: human PBMCs, 18 h; NOD2 agonists 1 μM; LPS 10 ng/mL; IFN-γ 200 U/mL
Text: Encouraged by the potent NOD2 activity of 40, we preliminarily evaluated its immunostimulatory potential in human primary peripheral blood mononuclear cells (PBMCs). Specifically, we first investigated the ability of 40 to induce cytokine production in PBMCs. While activation of NOD2 alone is sufficient to elicit cytokine responses, these responses are usually of low intensity. However, NOD2 agonists can act in synergy with ligands of other innate immune receptors and proinflammatory cytokines to induce considerably stronger responses. We were particularly intrigued by the synergistic interactions between NOD2, TLR4, and IFN-γ. The synergy between NOD2 agonists and TLR4 agonists in terms of cytokine secretion, including IFN-γ, is well-established.[29],[30] Similarly, IFN-γ has previously been reported to augment the MDP-mediated activation and cytokine production by dendritic cells and macrophages.[31],[32]
Figure 2 Synergistic effects of 40 with LPS and IFN-γ on induction of cytokine production from PBMCs. Cytokine concentrations were measured after 18 h of stimulation with NOD2 agonists (1 μM) in the presence or absence of LPS (10 ng/mL) and IFN-γ (200 U/mL) or the corresponding vehicle (0.1% DMSO; NT). Data are expressed as mean ± SEM of three independent experiments. Statistical significance was determined by one-way ANOVA followed by Bonferroni’s multiple-comparisons test; *, p < 0.05, **, p < 0.01, ***, p < 0.001 versus vehicle-treated control; ##, p < 0.01, ###, p < 0.001 versus 40 or LPS alone.
Figure S5. The effect of 40 on the production of cytokines from human PBMCs is NOD2 -dependent. PBMCs were pre-incubated for 1 h in the presence or absence of the NOD2 antagonist SG84 (10 µM), before the addition of 40 (1 µM). Cytokine concentrations in supernatants were measured after 18 h stimulation.
Data are expressed as mean s ± SEM of 3 independent experiments. Statistical significance was determined by one-way ANOVA followed by Bonferroni’s multiple comparisons test; **, p < 0.01, ***, p < 0.001. […]
4.9 Cytokine release from peripheral blood mononuclear cells
Peripheral blood mononuclear cells were seeded ( 500,000 cells/well) in 24-well plates in 500 µL growth medium and treated with MDP (1 µM), 2 (1 µM), or 40 (1 µM), in the presence or absence of LPS (10 ng/mL) or IFN-γ (200 U/mL), or the corresponding vehicle (0.1% DMSO). In some wells, PBMCs were pre-treated for 1 h with the NOD2 antagonist SG84 (10 µM), before the addition of 40 (1 µM). Cell-free supernatants were collected after 18 h of incubation (37 °C, 5% CO2) and stored at -80 °C until tested.
Cytokine production was determined with BD Cytometric Bead Array human inflammatory cytokines kit (BD Bioscience) on an Attune NxT flow cytometer (Thermo Fisher Scientific, Waltham, MA, USA). Standard curves were generated using recombinant cytokines contained in the kit. The data were analyzed using the FlowJo (Tree Star, Inc., Ashland, OR, USA) and Prism (GraphPad, San Diego, CA, USA) software.

[3] = tested on: K562 cancer cells; parameters: method as in PMID 34043358; settings: cited from earlier work
[4] = tested on: K562 cancer cells; experiment: PBMC cytotoxicity against K562 cancer cells; type: cell-based; settings: 1 μM + LPS 1 μg/mL or IFN-γ 200 U/mL, 18 h; 40:1, 4 h
Description: In addition, we also investigated the ability of 40, both alone and in combination with LPS and IFN-γ, to induce direct and nonspecific cytolytic activity of PBMCs against cancer cells. For this purpose, we used a functional cytotoxicity assay based on the coincubation of preactivated PBMCs and fluorescently labeled K562 cancer cells.[33] Among the heterogeneous subpopulations of PBMCs, natural killer (NK) cells and, to a lesser extent, monocytes represent the main effector cell types in this assay. NK cells play an essential role in tumor and viral immunosurveillance, both through direct cytolytic destruction of aberrant cells and by facilitating the recruitment and activation of other immune cells through the secretion of cytokines.[34] In addition to their well-established role in cancer immunotherapy, NK cells thus also provide an attractive target in the development of vaccine adjuvants, particularly when Th1 cellular immune responses are preferred.[35] Other cell populations, however, may contribute to the magnitude of NK cell-mediated responses via cytokine secretion. To account for the contribution of these accessory cells and to more accurately represent in vivo conditions, the entire PBMC population was used instead of isolated NK cells.
Figure 3 2 and 40 synergize with LPS and IFN-γ to induce the cytotoxicity of PBMCs against K562 cancer cells. Following 18 h of stimulation of PBMCs with 2 (1 μM) or 40 (1 μM) in the presence or absence of LPS (1 μg/mL) and IFN-γ (200 U/mL) or the corresponding vehicle (0.1% DMSO; NT), K562 cells were added in a 40:1 effector to target cell ratio. Cytotoxicity was determined after 4 h of coincubation. IL-2 (200 U/mL) was used as the positive control. Data are shown as relative activities to vehicle-treated control (0.1% DMSO) and are the means ± SEMs of duplicates of two independent experiments. Statistical significance was determined by one-way ANOVA followed by Dunnet’s multiple-comparisons test; **, p < 0.01, ***, p < 0.001. […]
4.8 Peripheral blood mononuclear cell cytotoxicity
The PBMC cytotoxicity assays using K562 cells were performed as described previously, with some modifications.2 PBMCs were seeded (400,000 cells/well) in duplicates in 96 -well U-bottom plates and treated with 2 (1 µM) or 40 (1 µM), in the presence or absence of LPS (1 µg/mL) or IFN-γ (200 U/mL), IL-2 (200 U/mL), or the corresponding vehicle (0.1% DMSO) for 18 h. K562 were stained with carboxyfluorescein succinimidyl ester (CFSE, Invitrogen, Carlsbad, CA, USA), washed twice with complete medium, and added (10,000 cells/well) to the pre-treated PBMCs for a final effector cell to target tumor cell ratio of 40:1. After a 4 h coincubation (37 °C, 5% CO2), cells were stained with Sytox Blue dead cell stain (Invitrogen) and analyzed using an Attune NxT flow cytometer (Thermo Fisher Scientific, Waltham, MA, USA) and FlowJo software (Tree Star, Inc., Ashland, OR, USA). Cells that were positive for both CFSE and Sytox Blue were defined as dead K562 cells. PBMCs alone and CFSE-labeled K562 cells alone were also treated with the compounds at the same concentrations and stained with Sytox Blue to exclude any direct cytotoxicity of the compounds towards the PBMCs and cancer cells.
4.9 Cytokine release from peripheral blood mononuclear cells […]

[5] = HEK-Blue NOD2 cells, 18 h, means ± SEMs of at least three independent experiments, 8 or 16 concentrations (0.1 nM to 20 μM)

T1 sequence (Q9HC29 whole entry): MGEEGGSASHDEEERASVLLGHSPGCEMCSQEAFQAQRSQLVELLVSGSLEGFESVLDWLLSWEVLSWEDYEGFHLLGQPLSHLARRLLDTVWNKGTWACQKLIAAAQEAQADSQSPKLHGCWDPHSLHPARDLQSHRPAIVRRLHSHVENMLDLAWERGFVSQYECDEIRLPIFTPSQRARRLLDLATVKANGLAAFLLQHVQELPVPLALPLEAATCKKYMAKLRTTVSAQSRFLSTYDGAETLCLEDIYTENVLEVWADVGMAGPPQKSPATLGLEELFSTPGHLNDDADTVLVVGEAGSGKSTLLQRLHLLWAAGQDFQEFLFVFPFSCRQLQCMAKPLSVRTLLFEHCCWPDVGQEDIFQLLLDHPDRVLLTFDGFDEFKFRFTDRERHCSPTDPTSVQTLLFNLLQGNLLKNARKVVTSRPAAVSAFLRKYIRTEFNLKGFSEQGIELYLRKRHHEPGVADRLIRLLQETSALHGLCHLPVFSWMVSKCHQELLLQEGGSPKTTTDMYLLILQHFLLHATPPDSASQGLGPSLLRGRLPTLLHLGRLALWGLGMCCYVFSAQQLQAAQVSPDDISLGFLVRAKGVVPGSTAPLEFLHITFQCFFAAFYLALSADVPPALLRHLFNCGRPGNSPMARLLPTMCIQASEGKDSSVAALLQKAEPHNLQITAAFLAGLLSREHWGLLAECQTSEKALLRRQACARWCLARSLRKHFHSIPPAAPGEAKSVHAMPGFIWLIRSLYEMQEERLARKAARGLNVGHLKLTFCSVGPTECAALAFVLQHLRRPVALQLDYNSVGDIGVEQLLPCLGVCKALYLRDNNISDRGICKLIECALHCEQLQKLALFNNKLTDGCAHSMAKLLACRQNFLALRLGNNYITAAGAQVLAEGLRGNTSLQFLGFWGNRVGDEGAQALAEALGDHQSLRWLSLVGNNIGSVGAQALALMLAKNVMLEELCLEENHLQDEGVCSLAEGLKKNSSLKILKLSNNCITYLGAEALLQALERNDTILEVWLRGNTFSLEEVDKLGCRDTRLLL

Molecule: CCOC(=O)CC[C@@H](NC(=O)[C@@H](NC(=O)CNC(=O)/C=C/c1ccc2c(c1)OCO2)C(C)C)C(=O)OCC [Compound 29]
EC50 ([1]; HEK-Blue NOD2 cells): 2.67 µM
EC50 [1, 5]: 2.67 ± 0.357 µM
reduction in potency relative to 1 ([1]; NOD2 EC50 versus compound 1): 30 fold

Molecule: COc1cc(/C=C/C(=O)NCC(=O)N[C@H](C(=O)N[C@H](CCC(=O)OC2CCCC2)C(=O)OC2CCCC2)C(C)C)ccc1OC(=O)CC12CC3CC(CC(C3)C1)C2 [Compound 41]
EC50 [1, 5]: 0.044 ± 0.009 µM

Molecule: CCOC(=O)CC[C@@H](NC(=O)[C@H](Cc1ccncc1)NC(=O)CNC(=O)/C=C/c1ccc(O)c(OC)c1)C(=O)OCC [Compound 15]
NOD2 agonistic activity at the highest concentration tested ([1]; 20 μM, HEK-Blue NOD2 cells): only minor NOD2 agonistic activity
EC50 [1, 5]: > 10 µM

Molecule: COc1cc(/C=C/C(=O)NCC(=O)N[C@H](C(=O)N[C@H](CCC(=O)OC2CCCC2)C(=O)OC2CCCC2)C(C)C)ccc1O [Compound 2]
induction of cytotoxic activity of PBMCs (previous observations) [3]: failed to induce
LPS- and IFN-γ-induced cytotoxic activity of PBMCs against K562, costimulation [4]: significantly enhanced
production of IL-1β, IL-6, IL-8 and TNF-α, stimulant alone [2]: modest production

Molecule: CCOC(=O)CC[C@@H](NC(=O)[C@@H](NC(=O)CNC(=O)/C=C/c1ccc(O)c(OC)c1)C(C)C)C(=O)OCC [Compound 1]
induction of cytotoxic activity of PBMCs (previous observations) [3]: failed to induce

Molecule: CCOC(=O)CC[C@@H](NC(=O)[C@@H](NC(=O)CNC(=O)/C=C/c1ccc(O)c(OC)c1)C12CC3CC(CC(C3)C1)C2)C(=O)OCC [Compound 16]
EC50 [1, 5]: > 10 µM

Molecule: CCOC(=O)CC[C@@H](NC(=O)[C@H](CCc1ccccc1)NC(=O)CNC(=O)/C=C/c1ccc(O)c(OC)c1)C(=O)OCC [Compound 17]
EC50 [1, 5]: 0.42 ± 0.041 µM

Molecule: lipopolysaccharide [LPS, reference compound]
production of IL-1β, IL-6, IL-8 and TNF-α, stimulant alone [2]: strong increase

B1: interferon-γ (protein, UniProt P01579 24-161, looked up)
Interferon gamma: QDPYVKEAENLKKYFNAGHSDVADNGTLFLGILKNWKEESDRKIMQSQIVSFYFKLFKNFKDDQSIQKSVETIKEDMNVKFFNSNKKKRDDFEKLTNYSVTDLNVQRKAIHELIQVMAELSPAAKTGKRKRSQMLFRG
notes: proinflammatory cytokine used as costimulus
production of IL-1β, IL-6, IL-8 and TNF-α, stimulant alone [2]: negligible cytokine secretion

Second part, led by results:

EC50 [1, 5]: 0.76 ± 0.084 µM
Molecule: CCOC(=O)CC[C@@H](NC(=O)[C@@H](NC(=O)CNC(=O)c1cc2cc([N+](=O)[O-])ccc2o1)C(C)C)C(=O)OCC [Compound 33]

EC50 ([1]; HEK-Blue NOD2 cells): 2.62 µM
EC50 [1, 5]: 2.62 ± 0.209 µM
Molecule: CCOC(=O)CC[C@@H](NC(=O)[C@@H](NC(=O)CNC(=O)c1nc(-c2ccccc2)oc1C)C(C)C)C(=O)OCC [Compound 34]

EC50 [1, 5]: 0.203 ± 0.012 µM
Molecule: CC(=O)NC1C(O)OC(CO)C(O)C1OC(C)C(=O)NC(C)C(=O)NC(CCC(=O)O)C(N)=O (stereo not drawn) [MDP, muramyl dipeptide, reference compound]
production of IL-1β, IL-6, IL-8 and TNF-α, stimulant alone [2]: modest production

EC50 ([1]; HEK-Blue NOD2 cells): 4.34 µM
EC50 [1, 5]: 4.34 ± 0.468 µM
Molecule: CCOC(=O)CC[C@@H](NC(=O)[C@@H](NC(=O)CNC(=O)c1cc2ccccc2o1)C(C)C)C(=O)OCC [Compound 30]

EC50 ([1]; HEK-Blue NOD2 cells): 1.93 µM
EC50 [1, 5]: 1.93 ± 0.168 µM
Molecule: CCOC(=O)CC[C@@H](NC(=O)[C@@H](NC(=O)CNC(=O)c1cc2ccc(Br)cc2o1)C(C)C)C(=O)OCC [Compound 31]

EC50 [1, 5]: 0.316 ± 0.03 µM
Molecule: CCOC(=O)CC[C@@H](NC(=O)[C@@H](NC(=O)CNC(=O)c1cc2cc(Br)ccc2o1)C(C)C)C(=O)OCC [Compound 32]
